Each structure is given as a SMILES string. Values joined by “and” are separate entries in the source; they are usually repeats but may differ in a detail not shown here. Equal entries are not always repeated.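 Compound exposure: 48 hours, 5 concentrations, 96-well plates. At the GI50, growth is halved. At the TGI there is no net growth.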

Among the test systems are 786-0 renal; HOP-92 NSCLC; K-562 leukemia; MCF7 breast; OVCAR-3 ovarian; OVCAR-4 ovarian; SF-268 CNS; SF-539 CNS.
Common to all, as to experiment: NCI anticancer screen, dose series, 48 h

Consider `CC1OC(OC2CC(O)C3(CO)C4C(O)CC5(C)C(C6=CC(=O)OC6)CCC5(O)C4CCC3(O)C2)C(O)C(O)C1O` (stereo not drawn), for which the GI50 is below 0.0129 µM in the assay on 786-0 renal; 0.0216 µM in the assay with HOP-92 NSCLC; below 0.0198 µM with K-562 leukemia; below 0.0163 µM with MCF7 breast; below 0.013 µM with OVCAR-3 ovarian; below 0.0124 µM in the assay on OVCAR-4 ovarian. Besides, the values for the GI50 with SF-268 CNS and with SF-539 CNS were below 0.0142 µM and below 0.0132 µM, respectively. Besides, the TGI is below 0.0179 µM in the assay with 786-0 renal; 0.0791 µM with HOP-92 NSCLC; 0.29 µM in the assay on MCF7 breast; below 0.0171 µM in the assay with OVCAR-3 ovarian; 0.0176 µM in the assay on OVCAR-4 ovarian; 0.0236 µM in the assay with SF-268 CNS. Further, the TGI in the assay on SF-539 CNS is below 0.0182 µM.

For `COc1cc([C@@H]2c3cc4c(cc3[C@H](O)[C@H]3COC(=O)[C@H]23)OCO4)cc(OC)c1OC`, the GI50 is below 0.005 µM in the assay on 786-0 renal; below 0.01 µM in the assay with HOP-92 NSCLC; below 0.01 µM in the assay on K-562 leukemia; below 0.01 µM with MCF7 breast; below 0.005 µM in the assay with OVCAR-3 ovarian; below 0.005 µM in the assay on OVCAR-4 ovarian. Besides, the GI50 with SF-268 CNS and in the assay on SF-539 CNS was below 0.01 µM each time. Moreover, the TGI in the assay with 786-0 renal is 1.08 µM and 0.5 µM and < 0.215 µM; with K-562 leukemia, > 100 µM and 50 µM; with MCF7 breast, > 100 µM and 10.3 µM; in the assay with SF-268 CNS, > 63.4 µM and 50 µM and > 39.2 µM; in the assay with SF-539 CNS, below 0.005 µM.

Take `O=C(CCCc1ccccn1)c1ccccc1`: the TGI in the assay with 786-0 renal, in the assay on HOP-92 NSCLC, in the assay with K-562 leukemia, in the assay with MCF7 breast, with OVCAR-3 ovarian and in the assay on OVCAR-4 ovarian was above 100 µM in each case. In addition, the TGI in the assay with SF-268 CNS and in the assay on SF-539 CNS was above 100 µM each time.

With `N#Cc1cccc(NC(=O)c2oc3ccccc3c2-c2cnn(-c3ccccc3)c2)c1`, the GI50 in the assay with 786-0 renal is 221 µM; with HOP-92 NSCLC, 121 µM; with K-562 leukemia, above 500 µM; with MCF7 breast, 209 µM; in the assay with OVCAR-3 ovarian, above 500 µM; in the assay with OVCAR-4 ovarian, 193 µM. Further, the results for the GI50 in the assay with SF-268 CNS and with SF-539 CNS were 304 µM and 137 µM, respectively. Besides, the TGI in the assay with 786-0 renal, in the assay on HOP-92 NSCLC, in the assay on K-562 leukemia, in the assay with MCF7 breast, in the assay with OVCAR-3 ovarian and in the assay on OVCAR-4 ovarian was above 500 µM throughout. Also, the TGI with SF-268 CNS and in the assay with SF-539 CNS was above 500 µM each time.

On to `CCOC(=O)C1=C(C)NC2SC(=O)/C(=C\c3ccccc3)N2C1c1ccccc1` (stereo not drawn), for which the GI50 was above 100 µM in the assay with 786-0 renal; above 100 µM in the assay with HOP-92 NSCLC; 51.8 µM in the assay with K-562 leukemia; above 100 µM with MCF7 breast; above 100 µM with OVCAR-3 ovarian; 78.1 µM in the assay with OVCAR-4 ovarian. Also, the GI50 with SF-268 CNS and in the assay with SF-539 CNS was above 100 µM throughout. The TGI with 786-0 renal, with HOP-92 NSCLC, in the assay with K-562 leukemia, in the assay with MCF7 breast, in the assay with OVCAR-3 ovarian and in the assay with OVCAR-4 ovarian was above 100 µM in each case. Further, the TGI with SF-268 CNS and with SF-539 CNS was above 100 µM throughout.

For `O=S1(=O)CS(=O)(=O)OCCCO1`, the TGI with 786-0 renal, in the assay with HOP-92 NSCLC, in the assay with K-562 leukemia, with MCF7 breast, in the assay with OVCAR-3 ovarian and in the assay with OVCAR-4 ovarian was above 100 µM in each case. For the same compound, the TGI in the assay with SF-268 CNS and in the assay on SF-539 CNS was above 100 µM in each case.

For the compound `COc1ccc2c(=O)c3cc([N+](=O)[O-])ccc3n(C)c2c1`, the TGI with 786-0 renal, in the assay with HOP-92 NSCLC, in the assay on K-562 leukemia, in the assay with MCF7 breast, in the assay with OVCAR-3 ovarian and in the assay on OVCAR-4 ovarian was above 100 µM each time. Moreover, the TGI in the assay on SF-268 CNS and in the assay on SF-539 CNS was above 100 µM in each case.

As to `C/C(=C\CCc1ccoc1)CC/C=C(\C)CCCN1CCC(CO)CC1`, the GI50 with 786-0 renal is 2.35 µM; in the assay on HOP-92 NSCLC, 1.44 µM; in the assay with K-562 leukemia, 1.52 µM; in the assay on MCF7 breast, 3.24 µM; in the assay with OVCAR-3 ovarian, 3.78 µM; in the assay on OVCAR-4 ovarian, 3.28 µM. Moreover, the GI50 in the assay on SF-268 CNS is 5.65 µM; with SF-539 CNS, 2.39 µM. Besides, the TGI with 786-0 renal turned out to be 5.37 µM; in the assay with HOP-92 NSCLC it was 6.16 µM; with K-562 leukemia, 3.86 µM; in the assay with MCF7 breast, 11.6 µM; in the assay on OVCAR-3 ovarian, 13.7 µM; in the assay with OVCAR-4 ovarian it was 14.8 µM. In addition, the TGI was 19.4 µM in the assay with SF-268 CNS and 6.9 µM with SF-539 CNS.

As for `c1ccc(-c2nn(-c3ccccc3)[n+](-c3cccc4ccccc34)n2)cc1`, the GI50 was 5.1 µM in the assay with 786-0 renal; 1.15 µM with HOP-92 NSCLC; 0.608 µM in the assay on K-562 leukemia; 0.335 µM in the assay with MCF7 breast; 1.11 µM with OVCAR-3 ovarian; 0.394 µM in the assay on OVCAR-4 ovarian. The GI50 is 2.04 µM with SF-268 CNS and 2.33 µM in the assay with SF-539 CNS. The TGI in the assay on 786-0 renal was 29.3 µM; in the assay with HOP-92 NSCLC, 7.68 µM; in the assay with K-562 leukemia it was 16.1 µM; in the assay on MCF7 breast, 10.6 µM; in the assay on OVCAR-3 ovarian it was 19.1 µM; in the assay with OVCAR-4 ovarian it was 12.4 µM. Moreover, the TGI in the assay with SF-268 CNS amounted to 20.5 µM; with SF-539 CNS, 27.7 µM.

In the case of `N#Cc1c(-c2ccccc2)cc(-c2ccccc2)n(CCCCC(=O)NO)c1=O`, the GI50 was 2.83 µM with 786-0 renal; 2.23 µM with HOP-92 NSCLC; 2.1 µM with K-562 leukemia; 1.79 µM in the assay with MCF7 breast; 2.26 µM in the assay with OVCAR-3 ovarian; 2.74 µM with OVCAR-4 ovarian. The GI50 in the assay with SF-268 CNS is 2.71 µM; with SF-539 CNS it was 2.51 µM. Also, the TGI in the assay with 786-0 renal amounted to 9.13 µM; with HOP-92 NSCLC it was 7.57 µM; in the assay with K-562 leukemia, 12.4 µM; in the assay with MCF7 breast, 11 µM; with OVCAR-3 ovarian, 7.49 µM; in the assay on OVCAR-4 ovarian, 16.5 µM. The TGI worked out at 7.9 µM with SF-268 CNS and 10.4 µM with SF-539 CNS.

On to `COc1c(CNC(=O)CCl)cc2[nH]c(C)cc2c1CNC(=O)CCl`, for which the GI50 was 3.8 µM in the assay on 786-0 renal; 4.08 µM with HOP-92 NSCLC; 8.42 µM in the assay with K-562 leukemia; 2.81 µM with MCF7 breast; 3.41 µM in the assay with OVCAR-3 ovarian; 4.55 µM in the assay with OVCAR-4 ovarian. Moreover, the GI50 was 3.44 µM with SF-268 CNS and 7.09 µM in the assay on SF-539 CNS. Further, the TGI is 15.4 µM with 786-0 renal; 20.2 µM in the assay on HOP-92 NSCLC; above 100 µM in the assay with K-562 leukemia; 20.9 µM with MCF7 breast; 13 µM in the assay on OVCAR-3 ovarian; 22.3 µM in the assay on OVCAR-4 ovarian. In addition, the TGI with SF-268 CNS came to 21.7 µM; in the assay with SF-539 CNS, 29.8 µM.

For the origin of these results see PubChem BioAssay (NCI).
